Measured values from patent US20040171090A1, “Anti-tumor antigen against HTLV-I tumor or antigen epitope thereof” (priority 2001, published 2004).
Peptide text beside a SMILES is read from it.

Tests used:
[1] = tested on: HTLV-I-specific CTL cell lines; settings: for cytotoxic activity of HTLV-I-specific CTL cell lines against target cells sensitized with peptide (FIG. 6): 15-24 mer peptides 10 μM, 37° C. 1 hour, release assay 6 hours; for cytotoxic activity of HTLV-I-specific CTL cell lines against target cells sensitized with peptide (FIG. 6) / cytotoxicity of long-term-cultured CTL cell lines against target cells sensitized with peptide (FIG. 7) / peptide concentration necessary to induce cytotoxic activity of the same extent as Tax 180-188: E/T 10; for cytotoxicity of long-term-cultured CTL cell lines against target cells sensitized with peptide (FIG. 7): peptides 10 μM; for peptide concentration necessary to induce cytotoxic activity of the same extent as Tax 180-188: G14 cells treated 1 hour with serially diluted peptide
[2] = tested on: HTLV-I-infected tumor cells, FPM1-V1AX; test: Vaccine effect: splenic T cells of immunized nu/+ rats transferred to nu/nu rats given FPM1-V1AX, tumor volume; assay type: in vivo, rat; settings: nu/+ rats immunized subcutaneously twice, two-week interval, 100 μg peptide and/or ISS-ODN

Row | Compound | cytotoxic activity of HTLV-I-specific CTL cell lines against target cells sensitized with peptide (FIG. 6) ([1]; G14 cells) | other results
1 | CC[C@H](C)[C@H](NC(=O)[C@H](CCCNC(=N)N)NC(=O)[C@H](CCCCN)NC(=O)[C@H](Cc1ccc(O)cc1)NC(=O)[C@@H]1CCCN1C(=O)[C@@H](NC(=O)[C@H](CC(N)=O)NC(=O)[C@@H](NC(=O)[C@H](CC(C)C)NC(=O)[C@H](Cc1ccccc1)NC(=O)[C@H](C)N)[C@@H](C)O)C(C)C)C(=O)N[C@@H](CCC(=O)O)C(=O)N[C@@H](CCC(=O)O)C(=O)N[C@@H](CC(C)C)C(=O)N[C@@H](CC(C)C)C(=O)O [Tax 181-195] | effectively dissolve | cytotoxicity of long-term-cultured CTL cell lines against target cells sensitized with peptide (FIG. 7) ([1]; G14 cells): notably dissolved
2 | CC[C@H](C)[C@H](NC(=O)[C@H](CCCCN)NC(=O)[C@H](Cc1ccc(O)cc1)NC(=O)[C@H](CC(C)C)NC(=O)[C@H](CC(C)C)NC(=O)[C@H](CCC(=O)O)NC(=O)[C@H](CCC(=O)O)NC(=O)[C@@H](NC(=O)[C@H](CCCNC(=N)N)NC(=O)[C@H](CCCCN)NC(=O)[C@H](Cc1ccc(O)cc1)NC(=O)[C@@H]1CCCN1C(=O)[C@@H](NC(=O)[C@H](CC(N)=O)NC(=O)[C@@H](NC(=O)[C@H](CC(C)C)NC(=O)[C@H](Cc1ccccc1)NC(=O)[C@H](C)NC(=O)CNC(=O)[C@H](CC(C)C)NC(=O)[C@H](CCC(N)=O)NC(=O)CN)[C@@H](C)O)C(C)C)[C@@H](C)CC)C(=O)N[C@@H](CO)C(=O)N[C@@H](CC(C)C)C(=O)O [Tax 177-200] | effectively dissolve | cytotoxicity of long-term-cultured CTL cell lines against target cells sensitized with peptide (FIG. 7) ([1]; G14 cells): notably dissolved
3 | Tax 33-56: partially overlapping synthetic peptide (15-24 mers), partial peptide in the Tax protein (GGLCSARLHRHALLATCPEHQITW) | low cytotoxic activity | 
4 | CC(C)C[C@H](NC(=O)[C@H](Cc1ccccc1)NC(=O)[C@H](C)N)C(=O)N[C@H](C(=O)N[C@@H](CC(N)=O)C(=O)N[C@H](C(=O)N1CCC[C@H]1C(=O)N[C@@H](Cc1ccc(O)cc1)C(=O)N[C@@H](CCCCN)C(=O)O)C(C)C)[C@@H](C)O [Tax 181-189] (H-AFLTNVPYK-OH; N-terminus and C-terminus assumed) |  | peptide concentration necessary to induce cytotoxic activity of the same extent as Tax 180-188 [1]: 1 µM
5 | Tax 17-40: partially overlapping synthetic peptide (15-24 mers), partial peptide in the Tax protein (VYVFGDCVQGDWCPISGGLCSARL) | low cytotoxic activity | 
6 | Tax 97-120: partially overlapping synthetic peptide (15-24 mers), partial peptide in the Tax protein (TTPNIPPSFLQAMRKYSPFRNGYM) | low cytotoxic activity | 
7 | 5′-TGACTGTGAACGTTCGAGATGA-3′ [ISS-ODN] |  | suppression effect on tumor proliferation by splenic T cells from immunized rats (tumor volume, FIG. 12) [2]: not recognized
8 | LGAFLTNVP [Tax 179-187] |  | CTL sensitivity of target cells sensitized with 9 amino acid synthetic peptides (FIG. 8) ([1]; G14 cells, 9 mer peptides, same method as for the 15-24 mers): exhibited CTL sensitivity
9 | Tax 81-104: partially overlapping synthetic peptide (15-24 mers), partial peptide in the Tax protein (QRTSKTLKVLTPPITHTTPNIPPS) | low cytotoxic activity | 
10 | CC(C)C[C@H](NC(=O)[C@@H](N)Cc1ccccc1)C(=O)N[C@H](C(=O)N[C@@H](CC(N)=O)C(=O)N[C@H](C(=O)N1CCC[C@H]1C(=O)N[C@@H](Cc1ccc(O)cc1)C(=O)N[C@@H](CCCCN)C(=O)N[C@@H](CCCNC(=N)N)C(=O)O)C(C)C)[C@@H](C)O [Tax 182-190] (H-FLTNVPYKR-OH; N-terminus and C-terminus assumed) |  | peptide concentration necessary to induce cytotoxic activity of the same extent as Tax 180-188 [1]: 10 µM
